Results as given in patent publication US20120264684A1, “Glycosylated Form of Antigenic GLP-1 Analogue” (priority 2009, published 2012).
“Also recorded” adds a separate entry of the source.

Assays:
[1] = system: balb/c mice; settings: mouse, in vivo
Text: The effect of glycosylation on the antigenicity of exendin was verified by sensitizing mice with non-oligosaccharide chain added exendin-4 or position 30 Cys-disialooligosaccharide chain added exendin-4, and comparing blood anti-exendin-4 antibody concentrations.
As priming immunization, position 30 Cys-disialooligosaccharide chain added exendin-4 synthesized in Example 1 and non-oligosaccharide chain added exendin-4 (American Peptide Company) were mixed well with Complete Freund's adjuvant (Difco Laboratories) to make emulsions, and intraperitoneally administered to balb/c mice (female, 7 weeks old). […]
Plasma was collected from mice seven days after the boost immunization. The anti-exendin-4 antibody concentration in plasma was measured by Enzyme-Linked immunosorbent assay (ELISA) using commercially available anti-exendin-4 antibody (Antibodyshop) as the standard.
Fifty μg of non-oligosaccharide chain added exendin-4 was added to a 96-well ELISA plate, and incubated at 37° C. for 2 hours. […] The color development reaction was terminated by adding 20% SDS, and absorption at 405 nm was measured. The concentration of anti-exendin-4 antibody was determined using anti-exendin-4 monoclonal antibody as the standard.

[2] = system: BKS.Cg-+Leprdb/+Leprdb/Jc1 mice; test: Blood glucose lowering action of oligosaccharide chain added exendin-4 using db/db mice; type: in vivo; settings: for blood glucose lowering action in db/db mice: 9 mmol/10 mL PBS, 10 mL/kg i.p., blood glucose at 30, 60, 120, 240 minutes
Procedure: (§1) Blood glucose suppressing activity using db/db mice can be determined by measuring blood glucose after administration of a test compound to diabetic mice. Blood glucose after administration of the test compound is measured over time, and if for example, blood glucose 120 minutes after administration is lower than at the time of administration, blood glucose lowering action can be confirmed. For example, sustainability of blood glucose lowering action can also be determined by measuring blood glucose 300 minutes after administration.
A PBS solution of position 30 Cys-disialooligosaccharide chain added exendin-4 synthesized in Example 1 ([…]/10 mL) was intraperitoneally administered to BKS.Cg-+Leprdb/+Leprdb/Jc1 mice (10 weeks old, male) at an administration dosage of 10 mL/kg. Orbital blood was collected before administration of the compound, as well as 30 minutes, 60 minutes, 120 minutes, and 240 minutes later, and blood glucose was measured using Accu-Chek Aviva (Roche Diagnostics).
Blood glucose lowering action was compared with non-oligosaccharide chain added exendin-4 synthesized in Comparative Example 1.

[3] = system: C57BL/6JJcl mice; test: Oral glucose tolerance test (OGTT) of oligosaccharide chain added exendin-4; type: in vivo; settings: 0.9 nmol/10 ml PBS, 10 ml/kg i.p., 30 minutes before oral glucose 1 mg/g, fasted C57BL/6JJcl mice, GLP-1 at 9 nmol/10 ml
Procedure: (§2) Blood glucose suppressing activity by OGTT can be determined by measuring blood glucose elevation suppression when mice are force-fed sugar. For example, first, a test compound is administered to mice fasted overnight, and glucose solution is orally administered 30 minutes later. Blood glucose in mice will rise from the administration of glucose, reach maximum at about 30 minutes after administration, and then slowly decrease. The blood glucose suppressing action of the oligosaccharide, chain added antigenic GLP-1 analogue can be evaluated by measuring blood glucose 30 minutes after administration of glucose, and comparing it to blood glucose when non-oligosaccharide chain added antigenic GLP-1 analogue is administered. […] Orbital blood was collected before administration of glucose, as well as 30 minutes, 60 minutes, and 120 minutes after administration of glucose, and blood glucose was measured using Accu-Chek Aviva (Roche Diagnostics). Similarly, non-oligosaccharide chain added liraglutide was also administered to db/db mice, blood glucose was measured over time, and compared to the action of position 30 Cys-disialooligosaccharide chain added liraglutide.

[4] = system: BKS.Cg-+Leprdb/+Leprdb/Jc1 mice (db/db mice); test: Blood glucose lowering action of oligosaccharide chain added liraglutide using db/db mice; type: in vivo; settings: for blood glucose lowering action in db/db mice: 9 nmol/10 mL PBS, 10 mL/kg i.p., blood glucose at 30 to 720 minutes
Procedure: as §1, with “administration. […] Orbital blood was collected before administration of the compound, as well as 30 minutes, 60 minutes, 120 minutes, 240 minutes, 480 minutes, and 720 minutes later, and blood glucose was measured using Accu-Chek Aviva (Roche Diagnostics). Similarly, non-oligosaccharide chain added liraglutide was also administered to db/db mice, blood glucose was measured over time, and compared to the action of position 30 Cys-disialooligosaccharide chain added liraglutide.” for “administration.”

[5] = system: C57BL/6JJcl mice; test: Oral glucose tolerance test (OGTT) of oligosaccharide chain added liraglutide; type: in vivo; settings: 9 nmol/10 ml PBS, 10 ml/kg i.p., 30 minutes before oral glucose 1 mg/g, fasted C57BL/6JJcl mice
Procedure: as §2, with “Diagnostics).” for “Diagnostics). Similarly, non-oligosaccharide chain added liraglutide was also administered to db/db mice, blood glucose was measured over time, and compared to the action of position 30 Cys-disialooligosaccharide chain added liraglutide.”

[6] = target: albumin (Homo sapiens, UniProt P02768); settings: background art; cited from earlier work
Chain of albumin (P02768 25-609): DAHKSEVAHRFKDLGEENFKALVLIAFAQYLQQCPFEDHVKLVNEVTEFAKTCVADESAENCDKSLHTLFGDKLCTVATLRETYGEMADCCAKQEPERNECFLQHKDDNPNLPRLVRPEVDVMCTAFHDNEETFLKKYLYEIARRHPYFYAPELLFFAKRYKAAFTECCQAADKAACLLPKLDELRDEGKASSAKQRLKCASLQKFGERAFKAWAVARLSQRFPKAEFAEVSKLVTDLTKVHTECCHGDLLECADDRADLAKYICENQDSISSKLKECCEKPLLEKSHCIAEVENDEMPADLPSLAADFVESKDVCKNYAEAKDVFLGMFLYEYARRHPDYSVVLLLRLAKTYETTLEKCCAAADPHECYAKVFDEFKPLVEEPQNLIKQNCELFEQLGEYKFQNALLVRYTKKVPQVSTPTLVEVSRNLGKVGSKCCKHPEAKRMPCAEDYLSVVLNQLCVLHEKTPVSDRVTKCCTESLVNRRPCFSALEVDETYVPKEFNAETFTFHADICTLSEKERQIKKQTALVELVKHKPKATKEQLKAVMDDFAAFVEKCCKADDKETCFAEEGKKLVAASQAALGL

[7] = listed as Oligosaccharide chain added exendin-4
[8] = listed as Oligosaccharide chain added liraglutide
[9] = listed as Position 30 Cys-disialooligosaccharide chain added liraglutide
[10] = stated with the db/db mice test

## Position 30 Cys-DisialoOligosaccharide Chain Added Exendin-4
[1]
  plasma anti-exendin-4 antibody concentration / antibody titer compared to non-oligosaccharide chain added exendin-4: about one-quarter
[2]; [7]
  blood glucose lowering action in db/db mice: string blood glucose lowering action equal to non-oligosaccharide chain added exendin-4
[2]; listed as Position 30 Cys-disialooligosaccharide chain added exendin-4
  blood glucose lowering action in db/db mice: blood glucose lowering action and sustainability equal to non-oligosaccharide chain added exendin-4
[3]; [7]
  blood glucose elevation suppressive action (OGTT): blood glucose elevation suppressive action equal to non-oligosaccharide chain added exendin-4

## Position 30 Cys-DisialoOligosaccharide Chain Added Liraglutide
[4]; [8]
  blood glucose lowering action in db/db mice: blood glucose lowering action and sustainability equal to non-oligosaccharide chain added liraglutide
[4]; [9]
  blood glucose lowering action in db/db mice: strong blood glucose lowering action 30 minutes after administration; also recorded: blood glucose lowering action and sustainability equal to non-oligosaccharide, chain added liraglutide
[4]; i.p., 10 mL/kg, last sampling 720 minutes
  duration of blood glucose lowering effect in db/db mice: 12 h
[4]; [10]
  blood stability: high blood stability
[5]
  blood glucose elevation suppressive action (OGTT): even higher blood glucose elevation suppressive action compared to non-oligosaccharide chain added liraglutide
[5]; [8]
  blood glucose elevation suppressive action (OGTT): blood glucose elevation suppressive action even higher than non-oligosaccharide chain added liraglutide
[5]; [9]
  blood glucose elevation suppressive action (OGTT): blood glucose elevation suppressive action higher than vehicle (PBS only) and GLP-1

## Exendin-4
[2]
  blood glucose lowering action in db/db mice: strong blood glucose lowering action 30 minutes after administration
[2]; i.p., 10 mL/kg, last sampling 240 minutes
  duration of blood glucose lowering effect in db/db mice: 240 min
[2]; [10]
  blood stability: high blood stability
[3]
  blood glucose elevation suppressive action (OGTT): blood glucose elevation suppressive action higher than vehicle (PBS only) and GLP-1

## CCCCCCCCCCCCCCCC(=O)N[C@@H](CCC(=O)NCCCC[C@H](NC(=O)[C@H](C)NC(=O)[C@H](C)NC(=O)[C@H](CCC(N)=O)NC(=O)CNC(=O)[C@H](CCC(=O)O)NC(=O)[C@H](CC(C)C)NC(=O)[C@H](Cc1ccc(O)cc1)NC(=O)[C@H](CO)NC(=O)[C@H](CO)NC(=O)[C@@H](NC(=O)[C@H](CC(=O)O)NC(=O)[C@H](CO)NC(=O)[C@@H](NC(=O)[C@H](Cc1ccccc1)NC(=O)[C@@H](NC(=O)CNC(=O)[C@H](CCC(=O)O)NC(=O)[C@H](C)NC(=O)[C@@H](N)Cc1cnc[nH]1)[C@@H](C)O)[C@@H](C)O)C(C)C)C(=O)N[C@@H](CCC(=O)O)C(=O)N[C@@H](Cc1ccccc1)C(=O)N[C@H](C(=O)N[C@@H](C)C(=O)N[C@@H](Cc1c[nH]c2ccccc12)C(=O)N[C@@H](CC(C)C)C(=O)N[C@H](C(=O)N[C@@H](CCCNC(=N)N)C(=O)NCC(=O)N[C@@H](CCCNC(=N)N)C(=O)NCC(=O)O)C(C)C)[C@@H](C)CC)C(=O)O [Liraglutide]
[6]
  administered amount that binds to albumin: about 99%
